Experimental data from patent publication US20020137030A1, “METHOD OF DETECTION OF NEOPLASTIC CELLS” (JOHN HOPKINS UNIVERSITY SCHOOL OF MEDICINE, priority 1995, published 2002).
Entries after “also recorded” stand apart in the source; their conditions may differ.

What was measured:
Assay type in all cases: cell-based, human
[1] = system: cancer cell lines; experiment: Effects on cell growth, morphology and viability of cancer cell lines; conditions: non-specific; also seen in lines with homozygous deletions of p16, independent of methylation status
Description: (§1) Cells were grown in RPMI 1640 with 5-10% fetal calf serum depending on the growth requirements of each line. To assess re-expression, 5-deoxyazacytidine was supplemented to the medium at concentrations of […], and cells were harvested after three and five days.
However, these effects were non-specific and observed in cell lines with homozygous deletions of p16, and with retention of p16 alleles independent of methylation status. Therefore, we cannot attribute these non-specific effects to re-expression of p16, since other genes might also be affected by azacytidine.

[2] = system: 5′ CpG island of p16; experiment: Southern blot of 5′ CpG island methylation of p16 after 5-deoxyazacytidine
Description: Southern blots were performed as described (de Bustros, et al., Proc. Natl. Acad. Sci. U.S.A., 85:5693-5697, 1988). Briefly, […] of genomic DNA were digested with of EcoRI (10 U/mg) alone or in combination with the methylation-sensitive enzymes SmaI, EagI or SacII (15 U/mg each) for 16 h as specified by the manufacturers (Gibco-BRL and New England Biolabs), run on a 1% agarose gel, transferred to a Zeta-Probe GT nylon membrane (Bio-Rad), and probed with 25 ng of the 0.35 kb and 0.5 kb PCR products of exons 1 and 2 of p16 after random primer labelling (Feinberg, A. P. & Vogelstein, B. A, Annal. Biochem. 137:266-267, 1984). The primer sequences for the PE1 probe are as follows: sense 5′ GAAGAAAGAGGAGGGGCTG (SEQ ID NO:20), and antisense 5′ […] (SEQ ID NO:21), amplified with an annealing temperature of 60° C. by adding 3.6% formamide to the PCR buffer. The c-abl probe was provided by J.-P. Issa. The blots were then exposed in a phosphorimager (MolecularDynamics). All cases with a partial methylation pattern were repeated to exclude imcomplete enzymatic activity.
as §1
(§2) In order to test the hypothesis that 5′ CpG island methylation of p16 indeed blocks gene expression, five methylated cell lines (3 NSCLC and 2 HNSCC) were subjected for 3-5 days to different dosages (0.3-1 mmol) of the demethylating agent 5-deoxyazacytidine.

[3] = system: p16; experiment: Re-expression of p16 (RT-PCR) after 5-deoxyazacytidine in methylated lung and head and neck cancer cell lines
Description: (§3) Total RNA was extracted from cell lines by the guanidium-isothiocyanate-phenol-chloroform method (Chomczynski, P. & Sacchi, N., Analyt. Biochem, 162:156-159, 1987). Total RNA […] or poly-A (0.5 mg) was reverse transcribed by using Superscript II RNaseH^− (Gibco-BRL) reverse transcriptase (200 units) in the presence of hexamers (Pharmacia) and dNTP (Gibco-BRL). The cDNA was then amplified by PCR using the forward primer for exon 1 and the reverse primer for exons 2 or 3 (Kamb, et al., Science 264:436-440, 1994; and Serrano, et al., Nature 366:704-707, 1993) of p16 yielding a 428 or […] fragment respectively, which was run on 1.5% agarose gel. As a control, the […] fragment of p53 was amplified simultaneously. All reactions were repeated at least once. p16 primer sequence were as follows:
(§4) In the methylation studies, the cDNA was then amplified by PCR using the forward primer for exon 1 and the reverse primer for exons 2 or 3 of CDKN2/p16 yielding a 428 or […] fragment respectively, which was run on 1.5% agarose gel. As a control, the […] fragment of p53 (or β-actin) was amplified simultaneously. All reactions were repeated at least once.
as §1, §2

[4] = system: p16; experiment: Re-expression of p16 mRNA (RT-PCR) after 5-deoxyazacytidine in colon cancer cell lines RKO and SW480; conditions: 3 days
Description: as §3
as §4, with “once. […]” for “once.”
In contrast, normal breast and 3 of 4 tested colon mucosa samples had readily detectable p16 message. […]

Nc1ncn([C@H]2C[C@H](O)[C@@H](CO)O2)c(=O)n1 [5-deoxyazacytidine]
effects on cell growth, morphology, and viability [1]: profound effects
demethylation of p16 5′ CpG island, EcoRI and SmaI Southern (FIG. 5c) ([2]; line H157): Partial demethylation
demethylation of p16 5′ CpG island, EcoRI and SmaI Southern (FIG. 5c) ([2]; line H 1752, 1 and 0.5 mmol, 3 days and 5 days, all dosages and time points): demethylation was seen
demethylation of the monitored CpG sites ([2]; methylated cell lines, associated with reversal of the transcriptional block of p16): partial demethylation
re-expression of p16 message by RT-PCR ([3]; five methylated cell lines (3 NSCLC and 2 HNSCC), 0.3-1 mmol, 3-5 days, each dose and time tested): re-expressed the message of p16
re-expression of p16 (FIG. 5b) ([3]; methylated HNSCC cell lines (lanes 4 and 6)): re-express p16
reexpression of p16 message on reversal of methylation ([3]; methylated cell lines, summary statement): reexpression of p16 message
re-expression of p16, 428 bp RT-PCR product (FIG. 5d) ([3]; transcriptionally silenced lines U1752 and H157, all doses and times): re-express p16
p16 mRNA by RT-PCR after treatment [4]: p16 gene mRNA was seen; also recorded: detectable p16 mRNA
